Assay results: ChEMBL document CHEMBL5463725, “Data for DCP probe BAY-277” (2023)
Calls of active or inactive are those of the source. The calls are words filed in the database; no cut-off is given here.

What was measured:
[1] = biological target: Dual specificity protein kinase CLK4 (Homo sapiens) (UniProt Q9HAZ1); test: Inhibition of CLK4(h) at 10.0 µM in the Eurofins Kinase panel; details: Compound concentration 10.0 uM
[2] = biological target: RAC-beta serine/threonine-protein kinase (Homo sapiens) (UniProt P31751); test: Inhibition of PKBbeta(h) at 10.0 µM in the Eurofins Kinase panel; details: Compound concentration 10.0 uM
[3] = biological target: Interferon-induced, double-stranded RNA-activated protein kinase (Homo sapiens) (UniProt P19525); test: Inhibition of PKR(h) at 10.0 µM in the Eurofins Kinase panel; details: Compound concentration 10.0 uM
[4] = biological target: TRAF2 and NCK-interacting protein kinase (Homo sapiens) (UniProt Q9UKE5); test: Inhibition of TNIK(h) at 10.0 µM in the Eurofins Kinase panel; details: Compound concentration 10.0 uM
[5] = biological target: Tribbles homolog 2 (Homo sapiens) (UniProt Q92519); test: Inhibition of TRB2(h) at 10.0 µM in the Eurofins Kinase panel; details: Compound concentration 10.0 uM
[6] = biological target: Serine/threonine-protein kinase ICK (Homo sapiens) (UniProt Q9UPZ9); test: Inhibition of ICK(h) at 10.0 µM in the Eurofins Kinase panel; details: Compound concentration 10.0 uM
[7] = biological target: Serine/threonine-protein kinase DCLK3 (Homo sapiens) (UniProt Q9C098); test: Inhibition of DCAMKL3(h) at 10.0 µM in the Eurofins Kinase panel; details: Compound concentration 10.0 uM
[8] = biological target: Glutamate NMDA receptor (Rattus norvegicus) (UniProt P35439+Q00959+Q00960+Q00961+Q62645+Q8VHN2+Q9R1M7); test: Inhibition of Glutamate, NMDA, Glycine at 10.0 µM in the Eurofins Panlabs Safety Screen; type: protein-complex assay; details: Compound concentration 10.0 uM
[9] = biological target: PI3-kinase p110-delta/p85-alpha (Homo sapiens) (UniProt P27986+O00329); test: Inhibition of PI3 Kinase (p110d/p85a)(h) at 10.0 µM in the Eurofins Kinase panel; type: protein-complex assay; details: Compound concentration 10.0 uM
[10] = biological target: SRSF protein kinase 3 (Homo sapiens) (UniProt Q9UPE1); test: Inhibition of MSSK1(h) at 10.0 µM in the Eurofins Kinase panel; details: Compound concentration 10.0 uM
[11] = biological target: PAS domain-containing serine/threonine-protein kinase (Homo sapiens) (UniProt Q96RG2); test: Inhibition of PASK(h) at 10.0 µM in the Eurofins Kinase panel; details: Compound concentration 10.0 uM
[12] = biological target: MAP kinase-activated protein kinase 3 (Homo sapiens) (UniProt Q16644); test: Inhibition of MAPKAP-K3(h) at 10.0 µM in the Eurofins Kinase panel; details: Compound concentration 10.0 uM
[13] = biological target: Protein kinase C alpha type (Homo sapiens) (UniProt P17252); test: Inhibition of PKCalpha(h) at 10.0 µM in the Eurofins Kinase panel; details: Compound concentration 10.0 uM
[14] = biological target: Tyrosine-protein kinase Fgr (Homo sapiens) (UniProt P09769); test: Inhibition of Fgr(h) at 10.0 µM in the Eurofins Kinase panel; details: Compound concentration 10.0 uM
[15] = biological target: Testis-specific serine/threonine-protein kinase 4 (Homo sapiens) (UniProt Q6SA08); test: Inhibition of TSSK4(h) at 10.0 µM in the Eurofins Kinase panel; details: Compound concentration 10.0 uM
[16] = biological target: Ribosomal protein S6 kinase beta-1 (Homo sapiens) (UniProt P23443); test: Inhibition of p70S6K(h) at 10.0 µM in the Eurofins Kinase panel; details: Compound concentration 10.0 uM
[17] = biological target: SNF-related serine/threonine-protein kinase (Homo sapiens) (UniProt Q9NRH2); test: Inhibition of SNRK(h) at 10.0 µM in the Eurofins Kinase panel; details: Compound concentration 10.0 uM
[18] = biological target: MAP kinase-activated protein kinase 2 (Homo sapiens) (UniProt P49137); test: Inhibition of MAPKAP-K2(h) at 10.0 µM in the Eurofins Kinase panel; details: Compound concentration 10.0 uM
[19] = biological target: Cyclin-dependent kinase-like 2 (Homo sapiens) (UniProt Q92772); test: Inhibition of CDKL2(h) at 10.0 µM in the Eurofins Kinase panel; details: Compound concentration 10.0 uM
[20] = biological target: Mitogen-activated protein kinase kinase kinase 21 (Homo sapiens) (UniProt Q5TCX8); test: Inhibition of MLK4(h) at 10.0 µM in the Eurofins Kinase panel; details: Compound concentration 10.0 uM
D(3) dopamine receptor = D(3) dopamine receptor (Homo sapiens, UniProt P35462); test: GPCRScan assay: inhibition of D3; parameters: radioligand conc. used [nm] 0.5 – 1.8, parental cells HEKT
[21] = biological target: [Pyruvate dehydrogenase (acetyl-transferring)] kinase isozyme 2, mitochondrial (Homo sapiens) (UniProt Q15119); test: Inhibition of PDHK2(h) at 10.0 µM in the Eurofins Kinase panel; details: Compound concentration 10.0 uM
[22] = biological target: STE20/SPS1-related proline-alanine-rich protein kinase (Homo sapiens) (UniProt Q9UEW8); test: Inhibition of STK39(h) at 10.0 µM in the Eurofins Kinase panel; details: Compound concentration 10.0 uM
[23] = biological target: Serine/threonine-protein kinase pim-3 (Homo sapiens) (UniProt Q86V86); test: Inhibition of Pim-3(h) at 10.0 µM in the Eurofins Kinase panel; details: Compound concentration 10.0 uM
[24] = biological target: Methionine aminopeptidase 2 (Mus musculus, UniProt O08663); test: METAP2 biochemical assay (mouse)
[25] = biological target: Cannabinoid receptor 1 (Homo sapiens) (UniProt P21554); test: Inhibition of Cannabinoid CB1 at 10.0 µM in the Eurofins Panlabs Safety Screen; details: Compound concentration 10.0 uM
[26] = biological target: Calcium/calmodulin-dependent protein kinase type 1D (Homo sapiens) (UniProt Q8IU85); test: Inhibition of CaMKIdelta(h) at 10.0 µM in the Eurofins Kinase panel; details: Compound concentration 10.0 uM
[27] = biological target: Wee1-like protein kinase 2 (Homo sapiens) (UniProt P0C1S8); test: Inhibition of Wee1B(h) at 10.0 µM in the Eurofins Kinase panel; details: Compound concentration 10.0 uM
[28] = biological target: Methionine aminopeptidase 2 (Homo sapiens, UniProt P50579); test: Degradation in HUVEC cells (WB) Dmax (Western Blot (WB)); type: functional, cell-based
[29] = tested on: Arachidonate 15-lipoxygenase B ALOX15B (Homo sapiens); test: Inhibition of Lipoxygenase 15-LOX-2 at 10.0 µM in the Eurofins Panlabs Safety Screen; details: Compound concentration 10.0 uM
[30] = biological target: GABA transporter (Rattus norvegicus) (UniProt P31647+P23978+P31646+P48056); test: Inhibition of Transporter, GABA at 10.0 µM in the Eurofins Panlabs Safety Screen; type: protein assay; details: Compound concentration 10.0 uM
[31] = biological target: eIF-2-alpha kinase GCN2 (Homo sapiens) (UniProt Q9P2K8); test: Inhibition of GCN2(h) at 10.0 µM in the Eurofins Kinase panel; details: Compound concentration 10.0 uM
[32] = biological target: Calcium/calmodulin-dependent protein kinase type 1G (Homo sapiens) (UniProt Q96NX5); test: Inhibition of CaMKIgamma(h) at 10.0 µM in the Eurofins Kinase panel; details: Compound concentration 10.0 uM
[33] = biological target: Tyrosine-protein kinase JAK2 (Homo sapiens) (UniProt O60674); test: Inhibition of JAK2(h) at 10.0 µM in the Eurofins Kinase panel; details: Compound concentration 10.0 uM
[34] = biological target: Activin receptor type-1-like (Homo sapiens) (UniProt P37023); test: Inhibition of ALK1(h) at 10.0 µM in the Eurofins Kinase panel; details: Compound concentration 10.0 uM
[35] = biological target: Vascular endothelial growth factor receptor 3 (Homo sapiens) (UniProt P35916); test: Inhibition of Flt4(h) at 10.0 µM in the Eurofins Kinase panel; details: Compound concentration 10.0 uM
[36] = biological target: 3-hydroxy-3-methylglutaryl-coenzyme A reductase (Homo sapiens) (UniProt P04035); test: Inhibition of HMG-CoA Reductase at 10.0 µM in the Eurofins Panlabs Safety Screen; details: Compound concentration 10.0 uM
Chain of 3-hydroxy-3-methylglutaryl-coenzyme A reductase (Homo sapiens) (P04035 whole entry): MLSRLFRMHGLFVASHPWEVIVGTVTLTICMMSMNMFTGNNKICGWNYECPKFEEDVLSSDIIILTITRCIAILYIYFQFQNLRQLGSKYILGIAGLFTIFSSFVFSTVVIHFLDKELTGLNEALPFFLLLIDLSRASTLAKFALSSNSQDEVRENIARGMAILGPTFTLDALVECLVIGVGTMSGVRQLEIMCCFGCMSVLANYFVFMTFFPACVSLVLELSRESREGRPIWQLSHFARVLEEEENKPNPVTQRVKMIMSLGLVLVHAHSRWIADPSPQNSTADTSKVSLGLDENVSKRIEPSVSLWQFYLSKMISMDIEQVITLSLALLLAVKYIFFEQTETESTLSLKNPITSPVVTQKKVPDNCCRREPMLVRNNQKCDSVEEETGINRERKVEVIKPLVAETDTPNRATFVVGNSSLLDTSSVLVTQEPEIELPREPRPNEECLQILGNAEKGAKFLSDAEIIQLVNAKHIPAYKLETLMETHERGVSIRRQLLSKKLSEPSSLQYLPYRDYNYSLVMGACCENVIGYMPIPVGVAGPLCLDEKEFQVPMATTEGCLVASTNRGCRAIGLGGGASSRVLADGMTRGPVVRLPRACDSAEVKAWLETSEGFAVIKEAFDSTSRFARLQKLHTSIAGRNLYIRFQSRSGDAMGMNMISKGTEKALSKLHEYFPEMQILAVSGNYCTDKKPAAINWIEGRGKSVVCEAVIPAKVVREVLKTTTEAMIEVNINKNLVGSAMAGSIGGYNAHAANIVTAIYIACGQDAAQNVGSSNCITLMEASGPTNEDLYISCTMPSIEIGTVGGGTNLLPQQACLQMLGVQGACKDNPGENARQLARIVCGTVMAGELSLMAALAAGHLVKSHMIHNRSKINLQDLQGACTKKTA

Chain of D(3) dopamine receptor (P35462 whole entry): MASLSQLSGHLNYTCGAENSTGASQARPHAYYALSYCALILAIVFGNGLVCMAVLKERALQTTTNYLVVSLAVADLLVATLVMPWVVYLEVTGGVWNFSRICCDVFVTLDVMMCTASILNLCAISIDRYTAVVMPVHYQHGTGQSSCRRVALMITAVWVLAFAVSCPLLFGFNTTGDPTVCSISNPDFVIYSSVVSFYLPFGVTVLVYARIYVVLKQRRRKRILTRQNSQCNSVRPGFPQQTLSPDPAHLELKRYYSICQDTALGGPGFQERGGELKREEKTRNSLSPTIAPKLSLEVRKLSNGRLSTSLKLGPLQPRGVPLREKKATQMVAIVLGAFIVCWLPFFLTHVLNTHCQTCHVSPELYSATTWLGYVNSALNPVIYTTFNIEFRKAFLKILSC
Chain of Cannabinoid receptor 1 (Homo sapiens) (P21554 whole entry): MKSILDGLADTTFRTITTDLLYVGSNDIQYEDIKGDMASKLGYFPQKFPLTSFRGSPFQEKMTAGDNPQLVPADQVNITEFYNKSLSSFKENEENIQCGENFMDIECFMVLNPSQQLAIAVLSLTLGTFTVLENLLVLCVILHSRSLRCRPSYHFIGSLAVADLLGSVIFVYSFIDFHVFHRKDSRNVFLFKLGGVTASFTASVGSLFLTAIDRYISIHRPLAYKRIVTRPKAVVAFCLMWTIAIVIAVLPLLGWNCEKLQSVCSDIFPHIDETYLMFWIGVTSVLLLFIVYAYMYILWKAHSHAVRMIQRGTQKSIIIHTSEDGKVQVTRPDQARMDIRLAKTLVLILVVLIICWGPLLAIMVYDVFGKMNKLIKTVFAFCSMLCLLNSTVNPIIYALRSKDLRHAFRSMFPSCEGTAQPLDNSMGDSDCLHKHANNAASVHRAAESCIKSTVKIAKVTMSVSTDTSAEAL
Chain of Tyrosine-protein kinase Fgr (Homo sapiens) (P09769 2-529 limits assumed): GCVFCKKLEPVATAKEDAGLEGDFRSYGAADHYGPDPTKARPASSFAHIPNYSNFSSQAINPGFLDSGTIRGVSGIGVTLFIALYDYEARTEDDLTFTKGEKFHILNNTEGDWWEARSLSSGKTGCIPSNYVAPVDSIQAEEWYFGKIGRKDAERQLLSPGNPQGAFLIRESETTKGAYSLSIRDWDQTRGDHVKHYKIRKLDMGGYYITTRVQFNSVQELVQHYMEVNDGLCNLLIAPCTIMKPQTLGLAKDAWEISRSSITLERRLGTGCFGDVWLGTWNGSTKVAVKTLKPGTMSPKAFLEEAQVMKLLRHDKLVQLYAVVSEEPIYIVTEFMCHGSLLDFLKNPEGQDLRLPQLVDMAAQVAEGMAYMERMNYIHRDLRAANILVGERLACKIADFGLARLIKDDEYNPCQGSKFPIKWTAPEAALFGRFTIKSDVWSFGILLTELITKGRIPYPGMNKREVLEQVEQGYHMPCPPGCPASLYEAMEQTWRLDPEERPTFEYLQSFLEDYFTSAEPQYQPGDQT
Chain of Wee1-like protein kinase 2 (Homo sapiens) (P0C1S8 whole entry, looked up): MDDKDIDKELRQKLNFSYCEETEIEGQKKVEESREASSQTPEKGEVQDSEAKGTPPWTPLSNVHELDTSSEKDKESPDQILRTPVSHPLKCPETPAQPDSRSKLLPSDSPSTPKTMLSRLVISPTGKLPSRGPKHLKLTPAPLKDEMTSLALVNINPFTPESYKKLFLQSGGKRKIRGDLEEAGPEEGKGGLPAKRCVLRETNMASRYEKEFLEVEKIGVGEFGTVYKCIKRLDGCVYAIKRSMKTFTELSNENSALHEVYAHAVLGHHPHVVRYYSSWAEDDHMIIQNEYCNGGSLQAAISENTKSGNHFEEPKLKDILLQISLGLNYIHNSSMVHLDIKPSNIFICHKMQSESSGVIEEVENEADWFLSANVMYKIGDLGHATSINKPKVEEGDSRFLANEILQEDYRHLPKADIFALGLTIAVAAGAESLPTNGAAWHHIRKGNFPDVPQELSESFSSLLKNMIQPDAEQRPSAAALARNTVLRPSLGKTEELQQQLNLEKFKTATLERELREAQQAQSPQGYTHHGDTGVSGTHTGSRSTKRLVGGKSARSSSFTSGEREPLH
Chain of TRAF2 and NCK-interacting protein kinase (Homo sapiens) (Q9UKE5 whole entry, looked up): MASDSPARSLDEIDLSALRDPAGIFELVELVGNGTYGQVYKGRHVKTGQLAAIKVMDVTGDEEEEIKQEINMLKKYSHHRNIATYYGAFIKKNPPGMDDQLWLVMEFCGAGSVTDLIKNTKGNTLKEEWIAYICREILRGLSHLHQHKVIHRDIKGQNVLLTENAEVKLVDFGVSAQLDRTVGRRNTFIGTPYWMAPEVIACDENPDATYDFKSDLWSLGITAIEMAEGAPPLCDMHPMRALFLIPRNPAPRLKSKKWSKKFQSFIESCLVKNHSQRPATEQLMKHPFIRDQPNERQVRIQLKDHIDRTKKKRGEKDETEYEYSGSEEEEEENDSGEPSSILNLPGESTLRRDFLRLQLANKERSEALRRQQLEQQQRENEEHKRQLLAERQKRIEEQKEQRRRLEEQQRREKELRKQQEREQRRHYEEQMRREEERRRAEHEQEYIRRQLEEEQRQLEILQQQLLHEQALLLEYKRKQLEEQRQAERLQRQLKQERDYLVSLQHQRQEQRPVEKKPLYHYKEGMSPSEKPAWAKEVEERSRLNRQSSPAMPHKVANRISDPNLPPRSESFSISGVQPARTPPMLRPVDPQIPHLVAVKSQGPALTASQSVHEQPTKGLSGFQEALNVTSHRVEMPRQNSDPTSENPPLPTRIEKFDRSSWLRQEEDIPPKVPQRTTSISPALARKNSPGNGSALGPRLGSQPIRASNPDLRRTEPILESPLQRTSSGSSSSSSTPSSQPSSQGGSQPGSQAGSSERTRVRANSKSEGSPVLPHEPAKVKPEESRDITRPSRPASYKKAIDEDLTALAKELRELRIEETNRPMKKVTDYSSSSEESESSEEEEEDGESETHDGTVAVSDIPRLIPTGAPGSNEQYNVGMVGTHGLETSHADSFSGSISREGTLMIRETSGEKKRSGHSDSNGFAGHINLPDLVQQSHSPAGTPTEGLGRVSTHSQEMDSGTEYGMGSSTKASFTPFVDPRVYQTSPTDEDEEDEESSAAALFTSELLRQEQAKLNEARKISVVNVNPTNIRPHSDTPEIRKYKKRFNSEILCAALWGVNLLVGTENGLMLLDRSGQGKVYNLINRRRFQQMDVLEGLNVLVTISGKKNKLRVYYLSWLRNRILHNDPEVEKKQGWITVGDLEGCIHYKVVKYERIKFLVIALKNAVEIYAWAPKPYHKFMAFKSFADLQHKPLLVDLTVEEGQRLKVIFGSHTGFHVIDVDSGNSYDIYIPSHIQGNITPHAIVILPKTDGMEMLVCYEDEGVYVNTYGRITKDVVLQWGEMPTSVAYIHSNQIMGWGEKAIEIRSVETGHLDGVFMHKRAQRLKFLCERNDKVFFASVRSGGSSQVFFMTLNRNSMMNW

## O=C1NCCCC1N1Cc2cc(C3CCN(C(=O)CCCCCN4CCC(c5ccc(Oc6nn7cnnc7c7c6CCCC7)cc5)CC4)CC3)ccc2C1=O (stereo not drawn)
[1]
  inhibition: 10.8%
[2]
  inhibition: 14.1%
[3]
  inhibition: 10.3%
[4]
  inhibition: 12.5%
[5]
  inhibition: 10.9%
[6]
  inhibition: 10.1%
[7]
  inhibition: 10.5%
[8]
  inhibition: -6%
[9]
  inhibition: 11.6%
[10]
  inhibition: 12.1%
[11]
  inhibition: 23.9%
[12]
  inhibition: 11.4%
[13]
  inhibition: 12.8%
[14]
  inhibition: 10.1%
[15]
  inhibition: 10.8%
[16]
  inhibition: 10.2%
[17]
  inhibition: 10.6%
[18]
  inhibition: 16.6%
[19]
  inhibition: 17.6%
[20]
  inhibition: 10.7%
D(3) dopamine receptor; read-out: Ki
  Ki: 525 nM
D(3) dopamine receptor; read-out: pKi (converted)
  Ki: 490 nM
[21]
  inhibition: 18.6%
[22]
  inhibition: 11.5%

## O=C1CCC(N2Cc3cc(C4CCN(C(=O)CCCCCN5CCC(c6ccc(Oc7nn8cnnc8c8c7CCCC8)cc6)CC5)CC4)ccc3C2=O)C(=O)N1 (stereo not drawn)
[23]
  inhibition: 10.3%
[24]
  IC50: 5.9 nM (active)
[25]
  inhibition: 1%
[26]
  inhibition: 11.4%
[27]
  inhibition: 10.3%
[28]
  DCmax: 94%
[29]
  inhibition: -1%
[30]
  inhibition: 5%
[31]
  inhibition: 17.2%
[32]
  inhibition: 15.7%
[33]
  inhibition: 21.8%
[34]
  inhibition: 11.5%
[35]
  inhibition: 12.5%
[36]
  inhibition: 12%
